Measurements: patent US9198915B2, “Methods involving aldose reductase inhibitors” (The Board of Regents of The University of Texas System, priority 2007, dated 2015)

How the values were obtained:
[1] = biological target: AR (Homo sapiens, UniProt P15121); details: substrate of AR, in the presence of NADPH; cited from earlier work
[2] = test system: IL-6, IL-8 and PGE2; test: TNF-α- and LPS-induced IL-6, IL-8 and PGE2 secretion by SAEC (ELISA); type: cell-based, human; details: siRNA 100 nM 48 h, then TNF-α or LPS 24 h
[3] = test system: AR; test: RNA interference ablation of AR in SAEC (AR protein by Western blot); type: cell-based, human; details: transient transfection of SAEC, 100 nM, 48 h
Procedure: The ablation of AR mRNA was essentially carried out as described in the art. Briefly, 2×10^5 SAECs were plated in a 6-well plate and grown until ˜80% confluency. The cells were incubated with serum-free medium containing the AR-siRNA ([…] (SEQ ID NO:1)) or scrambled siRNA (AAAATCTCCCTAAATCA TACA (SEQ ID NO:2); control) to a final concentration of 100 nM and the RNAiFect™ transfection reagent (Qiagen). The cells were cultured for 48 h at 37° C., and AR expression was determined by measuring AR protein by Western blot analysis using anti-AR antibodies.
The ablation of AR mRNA was essentially carried out as described in the art. Briefly, 2×10^5 SAECs were plated in a 6-well plate and grown till >80% confluency. The cells were incubated with serum-free medium containing the AR-siRNA ([…]) (SEQ ID NO:1) or scrambled siRNA (AAAATCTCCCTAAATCA TACA (SEQ ID NO:2); control) to a final concentration of 100 nM and the RNAiFect™ transfection reagent (Qiagen). The cells were cultured for 48 h at 37° C., and AR expression was determined by measuring AR protein by Western blot analysis using anti-AR antibodies.

[4] = test system: IL-6, IL-8 and PGE2; test: RW-induced IL-6, IL-8 and PGE2 secretion by SAEC (ELISA); type: cell-based, human; details: siRNA 100 nM, 48 h, then RW 50 μg/ml 24 h
Procedure: The SAEC were plated in 6-well plates at a density of 2×10^5 cells/well in triplicate for each group. After 24 hours, the medium was replaced with serum-free SABM with or without zopolrestat (20 μM). The growth-arrested and AR ablated cells were stimulated with RW (50 μg/mL) for another 24 hours. The medium was collected from each well, centrifuged and supernatant was analyzed for PGE2 (Cayman Chemical Co., Ann Arbor, Mich.); IL-6 (Diaclone, Stamford, Conn.) and IL-8 (R&D systems Inc, Minneapolis, Minn.) by using an ELISA kits according to the manufacturer's instructions.

## CCCCCC(O)/C=C/C=O (stereo not shown) [HNE, 4-hydroxynonenal]
[1]
  Km: 10 to 30 µM

## AATCGGTGTCTCCAACTTCAA (SEQ ID NO:1) (listed as DNA, chemistry not given here) [AR siRNA, siRNA used to ablate AR mRNA in SAEC, 100 nM]
[2]
  TNF-α and LPS-induced IL-6, IL-8 and PGE2 production after ablation of AR: significantly prevented
[3]
  AR protein abolished: > 95%
[4]
  RW-induced synthesis of IL-6, IL-8 and PGE2 after siRNA ablation of AR: significantly prevented
